Experimental data published in US20210244704A1, “Cabazitaxel in mCRPC Patients Previously Treated with Docetaxel and Who Failed a Prior androgen signaling targeted inhibitor Agent” (SANOFI MATURE IP, priority 2019, published 2021).

How the values were obtained:
[1] = tested on: symptomatic skeletal events in mCRPC patients; experiment: Same clinical study: symptomatic skeletal events (SSE); format: in vivo, human
Source text: Time to symptomatic skeletal event rate: is defined as the time interval between the date of randomization and the date of the occurrence of the first event defining a symptomatic skeletal event (occurrence of a new symptomatic fracture, use of radiation therapy to relieve bone pain, occurrence of spinal cord compression or cancer-related orthopedic surgical intervention).
SSEs were defined as either the use of external beam radiation to relieve bone pain, occurrence of new symptomatic pathologic fractures, occurrence of spinal cord compression, or tumor-related orthopedic surgical intervention. SSEs were evaluated at baseline, at each visit, at the end of treatment, and every 12 weeks during follow-up. Standard imaging (bone scans and computed tomography or magnetic resonance imaging of the pelvis, abdomen, and chest) was scheduled at baseline and every 12 weeks until imaging-based disease progression. Pathologic fractures and spinal cord compression were assessed by imaging as needed throughout the study. Time to SSE was defined as time from randomization until first documented SSE.
(§1) Efficacy analysis used all randomized patients. Stratified log-rank tests were used to analyze time-to-event data. The primary analysis compared radiographic progression-free survival between the two treatment groups using a stratified log-rank test. Survival curves were generated using Kaplan-Meier estimates. Hazard ratios and associated 95% confidence intervals [CI] were estimated using a stratified Cox proportional hazards model. Stratified Cochran-Mantel-Haenszel chi-square tests were used to analyze categorical data. Descriptive statistics were used to summarize patient characteristics. The safety population (randomized patients who received at least one dose of study treatment) was used for all safety analyses.

[2] = tested on: mCRPC patients, safety population; experiment: Same clinical study: safety (adverse events, laboratory abnormalities, dose reductions); format: in vivo, human
Protocol: For patients in Arm A, cabazitaxel 25 mg/m^2 was administered intravenously over 1 hour every 3 weeks along with oral prednisone 10 mg given daily. Primary prophylactic granulocyte-colony stimulating factor (G-CSF) was required at each cycle for all patients in the cabazitaxel arm
For patients in Arm B, abiraterone acetate was administered orally at 1000 mg once daily along with oral prednisone 5 mg given twice daily or enzalutamide was administered orally at 160 mg once daily continuously. Abiraterone acetate was administered to patients who had received enzalutamide prior to study entry. Enzalutamide was administered to patients who received prior abiraterone acetate.
Cabazitaxel 25 mg/m^2, was administered intravenously over 1 hour every 3 weeks with oral prednisone 10 mg daily. Premedication included an antihistamine, glucocorticoid (dexamethasone 8 mg or equivalent), and histamine 2 receptor antagonist. Antiemetic prophylaxis was administered at physician's discretion. Primary prophylactic granulocyte-colony stimulating factor was required during each cycle of cabazitaxel. Patients received either abiraterone acetate (1000 mg orally once daily and oral prednisone 5 mg twice daily) or enzalutamide (160 mg orally once daily) continuously. A treatment cycle was 3 weeks in both arms. Abiraterone acetate was given to patients who previously received enzalutamide before study entry. Enzalutamide was given to patients who previously received abiraterone acetate.
Up to a maximum of 2 dose reductions was allowed per patient when necessary due to toxicity and according to the table below:
as §1

[3] = human, in vivo, listed as cabazitaxel

In the case of `CO[C@H]1C(=O)[C@]2(C)[C@@H](OC)C[C@H]3OC[C@@]3(OC(C)=O)[C@H]2[C@H](OC(=O)c2ccccc2)[C@]2(O)C[C@H](OC(=O)[C@H](O)[C@@H](NC(=O)OC(C)(C)C)c3ccccc3)C(C)=C1C2(C)C` [Cabazitaxel, 4α-acetoxy-2α-benzoyloxy-5β,20-epoxy-1p-hydroxy-7β,10β-dimethoxy-9-oxo-11-taxen-13α-yl (2R,3S)-3-tert-butoxycarbonylamino-2-hydroxy-3-phenylpropionate], the “Patients estimated to have a symptomatic skeletal event at 18 months” value ([1]; 18 months) is reported as 28.8%, the “Kaplan-Meier probability of not having symptomatic skeletal events” value ([1]; at 3 months) is reported as 92.6% and the “Kaplan-Meier probability of not having symptomatic skeletal events” value ([1]; at 6 months) is reported as 85.8%. For the same compound, the “Kaplan-Meier probability of not having symptomatic skeletal events” value ([1]; at 12 months) was 79.4%, the “Kaplan-Meier probability of not having symptomatic skeletal events” value ([1]; at 18 months) was 71.2% and the “Time to symptomatic skeletal events, hazard ratio” value ([1]; cabazitaxel vs androgen signaling targeted inhibitor) was 0.59. The “Surgery to the bone (first SSE)” value ([1]; human, in vivo) was 0 n, the “Grade ≥3 neutropenia, measured at nadir by blood test” value [2] was 55 patients and the “Anemia (laboratory abnormality)” value ([2]; All grades) was “(99.2) %”. The Constipation ([2]; All grades) was 19 n, the Hematuria ([2]; All grades) was 19 n and the “Hypokalemia (laboratory abnormality)” value ([2]; All grades) was “(12.0) %”. The “Leukopenia (laboratory abnormality)” value ([2]; All grades) was “(74.4) %”, the “Thrombocytopenia (laboratory abnormality)” value ([2]; All grades) was “(40.8) %” and the Alopecia ([2]; Grade ≥3) was 0 n. The “Anemia (laboratory abnormality)” value ([2]; Grade ≥3) was “(8.0) %”, the Arthralgia ([2]; Grade ≥3) was 0 n and the Asthenia/fatigue ([2]; Grade ≥3) was 4.0%. For the same compound, the “Bladder and urethral symptoms” value ([2]; Grade ≥3) was 0 n, the Cardiac disorders ([2]; Grade ≥3) was 0.8% and the Constipation ([2]; Grade ≥3) was 0 n. For the same compound, the Diarrhea ([2]; Grade ≥3) was 3.2%, the Dysgeusia ([2]; Grade ≥3) was 0 n and the Dyspnea ([2]; Grade ≥3) was 0 n. For the same compound, the Febrile neutropenia ([2]; Grade ≥3) was 3.2%, the “Hypokalemia (laboratory abnormality)” value ([2]; Grade ≥3) was “(0.8) %” and the “Leukopenia (laboratory abnormality)” value ([2]; Grade ≥3) was “(32.0) %”. It also gave a Musculoskeletal pain/discomfort ([2]; Grade ≥3) of 1.6%, a Nausea/vomiting ([2]; Grade ≥3) of 0 n and a Peripheral edema ([2]; Grade ≥3) of 0 n. It also gave a Peripheral neuropathy ([2]; Grade ≥3) of 3.2%, a Psychiatric disorders ([2]; Grade ≥3) of 0 n and a Renal disorders ([2]; Grade ≥3) of 3.2%. For the same compound, the “Spinal cord and nerve root disorders” value ([2]; Grade ≥3) was 2.4%, the Stomatitis ([2]; Grade ≥3) was 0 n and the “Thrombocytopenia (laboratory abnormality)” value ([2]; Grade ≥3) was “(3.2) %”. The Weight decreased ([2]; Grade ≥3) was 0 n, the “Grade 5 adverse events related to bronchial aspiration” value ([2]; human, in vivo) was “one” and the “Grade 5 adverse events related to general health deterioration due to progressive disease” value ([2]; human, in vivo) was “two”. For the same compound, the “Grade 5 adverse events related to head injury” value ([2]; human, in vivo) was “one”, the “Grade 5 adverse events related to infections” value ([2]; human, in vivo) was “two” and the “Grade 5 adverse events related to spinal cord compression” value ([2]; human, in vivo) was “one”. For the same compound, the Nail disorders ([2]; human, in vivo) was “no nail disorders were reported”, the “Any adverse event leading to permanent treatment discontinuation” value [2, 3] was 19.8% and the Any adverse events [2, 3] was 98.4%. For the same compound, the “Any grade ≥3 adverse events” value [2, 3] was 56.3%, the “Any serious adverse events” value [2, 3] was 38.9% and the “Grade ≥3 adverse events occurring more frequently in patients ≥70 years of age” value ([2]; ≥70 vs <70 years) was “asthenia, diarrhea and febrile neutropenia”.
